# According to patent US5128447A, “Synthetic peptide antagonists of neurokinin A, salts thereof and respective preparation processes” (A. Menarini Industrie Farmaceutiche Riunite S.r.l., priority 1989, dated 1992):
# Non-standard residues stand in square brackets, D forms with d. Residues, ends and D or L forms follow the SMILES beside them.
# Molecular target: T1, neurokinin A receptor (NK-2 receptor) (Rattus norvegicus, UniProt P16610)
# T1 sequence (P16610 1-390): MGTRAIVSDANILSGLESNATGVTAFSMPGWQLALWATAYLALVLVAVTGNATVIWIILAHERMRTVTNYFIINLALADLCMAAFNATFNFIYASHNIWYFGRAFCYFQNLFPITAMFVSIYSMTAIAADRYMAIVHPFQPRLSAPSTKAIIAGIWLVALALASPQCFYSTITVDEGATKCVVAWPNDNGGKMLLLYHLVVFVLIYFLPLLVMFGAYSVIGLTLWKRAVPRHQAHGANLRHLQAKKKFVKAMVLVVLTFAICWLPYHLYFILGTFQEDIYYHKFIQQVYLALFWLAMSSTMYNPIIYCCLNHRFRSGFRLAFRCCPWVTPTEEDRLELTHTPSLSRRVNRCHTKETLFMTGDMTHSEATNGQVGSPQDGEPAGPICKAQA
# Test: cell-based
# Protocol: The capacity of the peptides described in the present invention of interacting with the neurokinin A receptor as agonists or antagonists was evaluated by means of an in vitro assay using a preparation, in which the biological response produced by tachykinin and related peptides is exclusively determined by the neuro-kinin A receptor (NK-2 receptor). Such a preparation is the isolated vas deferens of rats, where the tachykinins produce a potentiation of the contractions caused by the intramural nerves following an electrical stimulation. The determination of the activity of the peptides in this preparation was carried out as described by Rovero et al. (Neuropeptides 10, 355, 1987). The agonistic activity of the peptides assayed is expressed as pD2, which represents the […] of the molar concentration of agonist which produces 50% of the maximum effect. […] The pD2 were calculated according to Van Rossum (Arch. Int. Pharmacodyn. 143, 249, 1963), and the pA 2 were calculated from the analysis of the Schild plot (O. Arunlakshana and H. O. Schild, Br. J. Pharmacol., 14, 48, 1959).
# The agonists produce a potentiation of the contractions caused by the nerve of the isolated vas deferens of rats. The antagonistic activity is evaluated as the capacity of the product to produce a parallel displacement towards the right of the concentration/response curve of neurokinin A after a contact time of 15 minutes.
smiles,measurement,value
CSCC[C@H](NC(=O)[C@@H](Cc1c[nH]c2ccccc12)NC(=O)[C@@H](Cc1c[nH]c2ccccc12)NC(=O)[C@@H](NC(=O)[C@@H](Cc1c[nH]c2ccccc12)NC(=O)[C@H](Cc1ccc(O)cc1)NC(=O)[C@H](CC(=O)O)NC(=O)[C@@H](N)CCCNC(=N)N)C(C)C)C(N)=O [H--Arg--Asp--Tyr--DTrp--Val--DTrp--DTrp--Met--NH2] (H-RDY[dW]V[dW][dW]M-NH2),Kb,0.251 µM
CC(C)[C@H](NC(=O)[C@@H](Cc1c[nH]c2ccccc12)NC(=O)[C@H](Cc1ccc(O)cc1)NC(=O)[C@H](CC(=O)O)NC(=O)[C@@H](N)CCCNC(=N)N)C(=O)N[C@H](Cc1c[nH]c2ccccc12)C(=O)N[C@H](Cc1c[nH]c2ccccc12)C(=O)N[C@@H](Cc1ccccc1)C(N)=O [H--Arg--Asp--Tyr--DTrp--Val--DTrp--DTrp--Phe--NH2] (H-RDY[dW]V[dW][dW]F-NH2),Kb,0.575 µM
CC(C)[C@H](NC(=O)[C@@H](Cc1c[nH]c2ccccc12)NC(=O)[C@H](Cc1ccc(O)cc1)NC(=O)[C@@H](N)CC(=O)O)C(=O)N[C@H](Cc1c[nH]c2ccccc12)C(=O)N[C@H](Cc1c[nH]c2ccccc12)C(=O)N[C@@H](CCCNC(=N)N)C(N)=O [H--Asp--Tyr--DTrp--Val--DTrp--DTrp--Arg--NH2] (H-DY[dW]V[dW][dW]R-NH2),Kb,0.251 µM
CC(C)[C@H](NC(=O)[C@@H](Cc1c[nH]c2ccccc12)NC(=O)[C@H](Cc1ccc(O)cc1)NC(=O)[C@@H](N)CC(=O)O)C(=O)N[C@H](Cc1c[nH]c2ccccc12)C(=O)N[C@H](Cc1c[nH]c2ccccc12)C(=O)N[C@@H](Cc1ccc(O)cc1)C(N)=O [H--Asp--Tyr--DTrp--Val--DTrp--DTrp--Tyr--NH2] (H-DY[dW]V[dW][dW]Y-NH2),Kb,0.191 µM
CC(C)[C@H](NC(=O)[C@@H](Cc1c[nH]c2ccccc12)NC(=O)[C@H](Cc1ccc(O)cc1)NC(=O)[C@H](CC(=O)O)NC(=O)[C@@H](N)CCCCN)C(=O)N[C@H](Cc1c[nH]c2ccccc12)C(=O)N[C@H](Cc1c[nH]c2ccccc12)C(=O)N[C@@H](CCCNC(=N)N)C(N)=O [H--Lys--Asp--Tyr--DTrp--Val--DTrp--DTrp--Arg--NH2] (H-KDY[dW]V[dW][dW]R-NH2),Kb,0.339 µM
CC(C)[C@H](NC(=O)[C@@H](Cc1c[nH]c2ccccc12)NC(=O)[C@H](Cc1ccc(O)cc1)NC(=O)[C@H](CC(=O)O)NC(=O)[C@@H](N)[C@@H](C)O)C(=O)N[C@H](Cc1c[nH]c2ccccc12)C(=O)N[C@H](Cc1c[nH]c2ccccc12)C(=O)N[C@@H](CCCNC(=N)N)C(N)=O [H--Thr--Asp--Tyr--DTrp--Val--DTrp--DTrp--Arg--NH2] (H-TDY[dW]V[dW][dW]R-NH2),Kb,0.251 µM
CC(C)[C@H](NC(=O)[C@@H](Cc1c[nH]c2ccccc12)NC(=O)[C@H](Cc1ccc(O)cc1)NC(=O)[C@H](CC(=O)O)NC(=O)[C@@H](N)CCCNC(=N)N)C(=O)N[C@H](Cc1c[nH]c2ccccc12)C(=O)N[C@H](Cc1c[nH]c2ccccc12)C(=O)N[C@@H](CCCNC(=N)N)C(N)=O [H-Arg-Asp-Tyr-DTrp-Val-DTrp-DTrp-Arg-NH2] (H-RDY[dW]V[dW][dW]R-NH2),Kb,0.316 µM
CC(C)[C@H](NC(=O)[C@@H](Cc1c[nH]c2ccccc12)NC(=O)[C@H](Cc1ccc(O)cc1)NC(=O)[C@@H](N)CC(=O)O)C(=O)N[C@H](Cc1c[nH]c2ccccc12)C(=O)N[C@H](Cc1c[nH]c2ccccc12)C(=O)N[C@H](Cc1c[nH]c2ccccc12)C(N)=O [H-Asp-Tyr-DTrp-Val-DTrp-DTrp-DTrp-NH2] (H-DY[dW]V[dW][dW][dW]-NH2),Kb,0.155 µM
"CSCC[C@H](NC(=O)[C@H](CC(C)C)NC(=O)CNC(=O)[C@@H](NC(=O)[C@H](Cc1ccccc1)NC(=O)[C@H](CO)NC(=O)[C@@H](N)CC(=O)O)C(C)C)C(N)=O [NKA(4-10), reference compound]",EC50,1.05 µM
